# Molecular target: hNR2B (Homo sapiens, UniProt Q05586+Q13224)
# Experiment: Electrophysiology NMDA receptor experiments: two electrode voltage-clamp in Xenopus laevis oocytes expressing GluN1/GluN2 subunits
# Assay type: cell-based
# Conditions: oocytes voltage clamped at −40 mV; 50 μM glutamate, 30 μM glycine; read-out: Rating (hNR2B IC50)
# Protocol: Electrophysiology NMDA Receptor Experiments.
# Stage V and VI oocytes were surgically removed from the ovaries of large, well-fed and healthy Xenopus laevis anesthetized with 3-amino-benzoic acid ethyl ester (3 gm/l). Clusters of isolated oocytes were incubated with 292 U/ml Worthington (Freehold, N.J.) type IV collagenase or 1.3 mg/ml collagenase (Life Technologies, Gaithersburg, Md.; 17018-029) for 2 hr in Ca^2+-free solution comprised of (in mM) 115 NaCl, 2.5 KCl, and 10 HEPES, pH 7.5, with slow agitation to remove the follicular cell layer. Oocytes were then washed in the same solution supplemented with 1.8 mM CaCl2 and maintained in Barth's solution comprised of (in mM): 88 NaCl, 1 KCl, 2.4 NaHCO3, 10 HEPES, 0.82 MgSO4, 0.33 Ca(NO3)2, and 0.91 CaCl2 and supplemented with 100 μg/ml gentamycin, 10 μg/ml streptomycin, and 10 μg/ml penicillin. Oocytes were manually defolliculated and injected within 24 hrs of isolation with 3-5 ng of human GluN1 subunit cRNA and 7-10 ng of human GluN2 cRNA subunit in a 50 nl volume, and incubated in Barth's solution at 18° C. for 2-7 d. Glass injection pipettes had tip sizes ranging from 10-20 microns, and were backfilled with mineral oil. cRNA was synthesized from linearized template cDNA for rat glutamate receptor subunits according to manufacturer specifications (Ambion).
# Two electrode voltage-clamp recordings were made 2-7 days post-injection. Oocytes were placed in a dual-track plexiglass recording chamber with a single perfusion line that splits in a Y-configuration to perfuse two oocytes. Dual recordings were made at room temperature (23° C.) using two Warner OC725B two-electrode voltage clamp amplifiers, arranged as recommended by the manufacturer. Glass microelectrodes (1-10 Megaohms) were filled with 300 mM KCl (voltage electrode) or 3 M KCl (current electrode). The bath clamps communicated across silver chloride wires placed into each side of the recording chamber, both of which were assumed to be at a reference potential of 0 mV. Oocytes were perfused with a solution comprised of (in mM) 90 NaCl, 1 KCl, 10 HEPES, […] and 0.5 BaCl2; pH 7.4, adjusted by addition of NaOH. Oocytes were recorded under voltage clamp at −40 mV. Final concentrations for glutamate and glycine were 50 μM and 30 μM, respectively. Concentration-response curves for experimental compounds were obtained by applying in successive fashion maximal glutamate/glycine, followed by glutamate/glycine plus variable concentrations of experimental compounds. Dose response curves consisting of four to eight concentrations were obtained in this manner. The baseline leak current at −40 mV was measured before and after recording, and the full recording linearly corrected for any change in leak current. The level of inhibition by applied experimental compounds was expressed as a percent of the initial glutamate response, and averaged together across oocytes from multiple experiments. Results were pooled, and the average percent responses at antagonist concentrations were fit by the equation, Percent Response=(100−minimum)/(1+([conc]/IC50)^nH)+minimum where minimum is the residual percent response in saturating concentration of the experimental compounds, IC50 is the concentration of antagonist that causes half of the achievable inhibition, and nH is a slope factor describing steepness of the inhibition curve. […]
# For NMDA receptor subtype selectivity experiments human GluN1/GluN2A, GluN1/GluN2C, and GluN1/GluN2D cRNAs were expressed in Xenopus laevis as described above. Here, 10 μM concentrations of the antagonist was perfused with 50 μM glutamate and 30 μM glycine onto the oocyte for two min and the remaining current in the presence of the antagonist was compared to the maximal current obtained with 50 μM glutamate and 30 μM glycine alone (defined as 100%). When IC50 determinations were made against other NMDA receptor subtypes the protocol as described above was followed. […]
# Chain of hNR2B (Q13224 27-1484, other chains not shown): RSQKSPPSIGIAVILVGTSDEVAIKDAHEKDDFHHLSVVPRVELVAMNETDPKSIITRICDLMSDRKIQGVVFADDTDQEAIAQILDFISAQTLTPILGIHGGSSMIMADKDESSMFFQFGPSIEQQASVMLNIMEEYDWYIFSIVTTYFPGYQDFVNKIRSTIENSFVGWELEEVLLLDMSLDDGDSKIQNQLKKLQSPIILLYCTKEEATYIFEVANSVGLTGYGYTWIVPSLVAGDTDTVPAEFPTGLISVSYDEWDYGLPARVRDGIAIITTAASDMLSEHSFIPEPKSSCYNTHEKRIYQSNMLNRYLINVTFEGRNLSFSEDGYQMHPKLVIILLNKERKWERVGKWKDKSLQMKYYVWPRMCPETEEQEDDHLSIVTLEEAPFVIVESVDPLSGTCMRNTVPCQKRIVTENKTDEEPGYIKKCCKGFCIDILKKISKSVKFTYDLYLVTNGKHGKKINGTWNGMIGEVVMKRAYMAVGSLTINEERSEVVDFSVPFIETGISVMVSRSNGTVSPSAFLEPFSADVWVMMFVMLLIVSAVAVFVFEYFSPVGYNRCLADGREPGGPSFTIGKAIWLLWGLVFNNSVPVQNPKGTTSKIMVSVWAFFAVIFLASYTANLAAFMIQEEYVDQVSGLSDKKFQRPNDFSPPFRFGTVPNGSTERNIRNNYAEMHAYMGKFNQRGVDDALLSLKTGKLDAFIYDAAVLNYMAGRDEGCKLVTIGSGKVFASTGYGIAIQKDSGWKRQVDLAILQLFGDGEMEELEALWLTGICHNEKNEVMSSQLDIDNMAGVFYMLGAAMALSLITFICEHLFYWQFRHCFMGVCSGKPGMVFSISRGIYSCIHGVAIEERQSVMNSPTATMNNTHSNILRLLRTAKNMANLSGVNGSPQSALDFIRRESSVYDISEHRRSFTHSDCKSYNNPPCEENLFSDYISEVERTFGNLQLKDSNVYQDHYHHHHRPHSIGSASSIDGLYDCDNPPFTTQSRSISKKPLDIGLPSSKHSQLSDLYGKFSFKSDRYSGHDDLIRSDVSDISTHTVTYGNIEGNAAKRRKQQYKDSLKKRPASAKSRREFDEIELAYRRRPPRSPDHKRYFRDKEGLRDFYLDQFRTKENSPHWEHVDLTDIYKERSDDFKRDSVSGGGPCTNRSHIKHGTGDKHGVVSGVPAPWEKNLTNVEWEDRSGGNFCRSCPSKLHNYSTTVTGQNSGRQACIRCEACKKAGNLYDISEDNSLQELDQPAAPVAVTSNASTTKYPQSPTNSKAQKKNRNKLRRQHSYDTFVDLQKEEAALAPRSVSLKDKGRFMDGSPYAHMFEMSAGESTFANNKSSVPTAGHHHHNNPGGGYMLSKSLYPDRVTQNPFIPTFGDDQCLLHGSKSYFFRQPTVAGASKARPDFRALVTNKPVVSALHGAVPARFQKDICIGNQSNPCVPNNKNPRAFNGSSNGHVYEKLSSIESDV
row,IC50 [nM],SMILES
1,201 to 1000,CCc1ccc(Nc2ncc(CCc3ccc4[nH]ncc4c3)cn2)cc1 [Example 127]
2,< 200,Fc1cc(Nc2ncc(CCc3ccc4[nH]ncc4c3)cn2)ccc1OC(F)F [Example 128]
3,< 200,O=c1ccc2cc(CCc3cnc(Nc4ccc(OC(F)F)c(F)c4)nc3)ccc2[nH]1 [Example 129]
4,< 200,CCc1ccc(Nc2ncc(CCc3ccc4[nH]c(=O)ccc4c3)cn2)cc1 [Example 131]
5,< 200,COc1ccc(Nc2ncc(CCc3ccc4[nH]c(=O)ccc4c3)cn2)cc1C [Example 132]
6,1000 to 10000,FC1(F)Oc2ccc(Nc3ncc(CCc4ccc5[nH]ncc5c4)cn3)cc2O1 [Example 133]
7,1000 to 10000,CCc1ccc(Nc2ncc(CCc3ccc4[nH]ncc4c3)cn2)cc1Cl [Example 134]
8,1000 to 10000,CCc1ccc(Nc2ncc(CCc3ccc4[nH]c(=O)ccc4c3)cn2)cc1Cl [Example 135]
9,> 10000,CC1(C)OC(=O)Nc2ccc(CCc3cnc(Nc4ccc(OC(F)F)cc4)nc3)cc21 [Example 138]
10,< 200,O=C1Nc2ccc(CCc3cnc(Nc4ccc(OC(F)F)cc4)nc3)cc2CO1 [Example 139]
11,201 to 1000,CC1(C)OC(=O)Nc2ccc(CCc3cnc(Nc4ccc(OC(F)F)c(Cl)c4)nc3)cc21 [Example 140]
12,1000 to 10000,CCc1ccc(Nc2ncc(CCc3ccc4c(c3)C(C)(C)OC(=O)N4)cn2)cc1F [Example 141]
13,1000 to 10000,Cc1ccc(Nc2ncc(CCc3ccc4c(c3)C(C)(C)OC(=O)N4)cn2)cc1F [Example 142]
14,< 200,O=C1Nc2ccc(CCc3cnc(Nc4ccc(OC(F)F)c(Cl)c4)nc3)cc2CO1 [Example 143]
15,< 200,CCc1ccc(Nc2ncc(CCc3ccc4c(c3)COC(=O)N4)cn2)cc1F [Example 144]
16,< 200,Cc1cc(Nc2ncc(CCc3ccc4c(c3)COC(=O)N4)cn2)ccc1OC(F)F [Example 145]
17,< 200,O=C1Nc2ccc(CCc3cnc(Nc4ccc(OC(F)F)c(F)c4)nc3)cc2CO1 [Example 146]
18,1000 to 10000,Cc1cc(Nc2ncc(CCc3ccc4c(c3)C(C)(C)OC(=O)N4)cn2)ccc1OC(F)F [Example 147]
19,1000 to 10000,CC1(C)OC(=O)Nc2ccc(CCc3cnc(Nc4ccc(OC(F)F)c(F)c4)nc3)cc21 [Example 148]
20,< 200,Cc1ccc(Nc2ncc(CCc3ccc4c(c3)COC(=O)N4)cn2)cc1F [Example 149]
21,< 200,Oc1ccc(CCc2cnc(Nc3ccc(OC(F)F)cc3)nc2)cc1 [Example 150]
22,201 to 1000,CCc1ccc(Nc2ncc(CCc3cnc4[nH]ncc4c3)cn2)cc1F [Example 151]
23,< 200,Fc1cc(Nc2ncc(CCc3cnc4[nH]ncc4c3)cn2)ccc1OC(F)F [Example 152]
24,< 200,Cc1cc(Nc2ncc(CCc3cnc4[nH]ncc4c3)cn2)ccc1OC(F)F [Example 153]
25,< 200,FC(F)Oc1ccc(Nc2ncc(CCc3cnc4[nH]ncc4c3)cn2)cc1 [Example 154]
26,< 200,O=c1ccc2cc(CCc3cnc(Nc4ccc(OC(F)F)cc4)nc3)cnc2[nH]1 [Example 155]

# Same assay, conditions: oocytes voltage clamped at −40 mV; 50 μM glutamate, 30 μM glycine; read-out: hNR2B IC50
row,IC50 [nM],SMILES
1,135,"FC(F)Oc1ccc(Nc2ccc(CCc3ccc4[nH]ncc4c3)nn2)cc1 [Example 156, 6-(2-(1H-indazol-5-yl)ethyl)-N-(4-(difluoromethoxy)phenyl)pyridazin-3-amine]"

# From US8841301B2, “Selective NR2B antagonists” (Bristol-Myers Squibb Company, priority 2011, dated 2014)
